Patent US10472346B2, “Potent gamma-secretase modulators” (The General Hospital Coporation, priority 2014, dated 2019)

Key:
Aβ42 levels = assay: Effects of 7 days treatment on mouse plasma and brain Aβ42 levels; format: in vivo, male C57BL/6J mouse; conditions: for percent reduction of Aβ42 levels in brain: mouse brain; for percent reduction of Aβ42 levels in plasma: mouse plasma
Protocol: FIG. 2: The effects of Compound 1 after 7-days treatment on Aβ42 levels in male C57BL/6J mouse plasma A) (plasma) where the percent reduction was 76%, 91% and 96% for dosages of 10, 25, and 50 mg/kg, respectively and in male C57BL/6J mouse brain B) where the percent reduction was 36%, 69% and 85% for dosages of 10, 25, and 50 mg/kg, respectively.
Effects of Compound 1 (7 Days Treatment) on Mouse Plasma and Brain Aβ42 Levels. The effects of Compound 1 after 7-days treatment on Aβ42 levels in mouse plasma and brain are depicted in FIG. 2A (plasma) and FIG. 2B (brain). For FIG. 2A, the percent reduction was 76%, 91% and 96% for dosages of 10, 25, and 50 mg/kg, respectively. For FIG. 2B, the percent reduction was 36%, 69% and 85% for dosages of 10, 25, and 50 mg/kg, respectively.

Aβ40 levels = assay: Effects of 7 days treatment on mouse plasma and brain Aβ40 levels; format: in vivo, male C57BL/6J mouse; conditions: for percent reduction of Aβ40 levels in brain: mouse brain; for percent reduction of Aβ40 levels in plasma: mouse plasma
Protocol: FIG. 3: The effects of Compound 1 after 7-days treatment on Aβ40 levels in male C57BL/6J mouse plasma A) (plasma) where the percent reduction was 62%, 81% and 91% for dosages of 10, 25, and 50 mg/kg, respectively and male C57BL/6J mouse brain B) where the percent reduction was 46%, 69% and 82% for dosages of 10, 25, and 50 mg/kg, respectively.
Effects of Compound 1 (7 Days Treatment) on Mouse Plasma and Brain Aβ40 Levels. The effects of Compound 1 after 7-days treatment on Aβ40 levels in mouse plasma and brain are depicted in FIG. 3A (plasma) and FIG. 3B (brain). For FIG. 3A, the percent reduction was 62%, 81% and 91% for dosages of 10, 25, and 50 mg/kg, respectively. For FIG. 3B, the percent reduction was 46%, 69% and 82% for dosages of 10, 25, and 50 mg/kg, respectively.

SMILES: COc1nc(-c2cc(C)c(N[C@@H](C)c3ccc(F)cc3)nn2)ccc1-n1cnc(C)c1 [Compound 1, (S)—N-(1-(4-fluorophenyl)ethyl)-6-(6-methoxy-5-(4-methyl-1H-imidazol-1-yl)pyridin-2-yl)-4-methylpyridazin-3-amine]
- percent reduction of Aβ42 levels in brain (Aβ42 levels; 10 mg/kg): 36%
- percent reduction of Aβ42 levels in brain (Aβ42 levels; 25 mg/kg): 69%
- percent reduction of Aβ42 levels in brain (Aβ42 levels; 50 mg/kg): 85%
- percent reduction of Aβ42 levels in plasma (Aβ42 levels; 10 mg/kg): 76%
- percent reduction of Aβ42 levels in plasma (Aβ42 levels; 25 mg/kg): 91%
- percent reduction of Aβ42 levels in plasma (Aβ42 levels; 50 mg/kg): 96%
- percent reduction of Aβ40 levels in brain (Aβ40 levels; 10 mg/kg): 46%
- percent reduction of Aβ40 levels in brain (Aβ40 levels; 25 mg/kg): 69%
- percent reduction of Aβ40 levels in brain (Aβ40 levels; 50 mg/kg): 82%
- percent reduction of Aβ40 levels in plasma (Aβ40 levels; 10 mg/kg): 62%
- percent reduction of Aβ40 levels in plasma (Aβ40 levels; 25 mg/kg): 81%
- percent reduction of Aβ40 levels in plasma (Aβ40 levels; 50 mg/kg): 91%
